The values that follow come from ChEMBL document CHEMBL1158084, “Cytotoxic diterpenoids from the soft coral Sarcophyton crassocaule” (J Nat Prod, 2006).

In brackets after ≈: the same amount, converted by molar mass.

The assay deals with KB. The experiment in a line: Cytotoxicity against human KB cells. It is filed as functional, cell-based.
Broadly, the IC50 is the concentration that inhibits the measured activity by half. High values mean weaker potency in that assay, low ones greater potency in that assay. `COC(=O)/C1=C/C=C(/C(C)C)CCC2=CCC[C@](C)(OC2=O)C(=O)CC1` [SARCRASSIN E] yielded an IC50 of 13 µg/mL (≈ 36.1 µM).

In the case of `COC(=O)/C1=C\C=C(\C(C)C)CCC2=CCC[C@](C)(OC2=O)[C@@H](OC(C)=O)CC1` [EMBLIDE], the half-maximal inhibitory concentration (IC50) turned out to be 5 µg/mL (≈ 12.4 µM). This IC50 is about 2.6-fold lower than that of the compound before.

With `COC(=O)/C1=C\[C@@H]2O[C@@]2(C(C)C)CC/C(C(=O)OC)=C/CC[C@]2(C)O[C@H]2CC1`, half-maximal inhibition (IC50) was put at 5 µg/mL (≈ 12.7 µM).

On to `COC(=O)/C1=C/C=C(/C(C)C)CCC2=CCC[C@](C)(OC2=O)[C@H](OC(C)=O)CC1` [SARCRASSIN D], for which half-maximal inhibition (IC50) was put at 4 µg/mL (≈ 9.89 µM).
